Results from patent US11021490B2, “Pyridinium oxazole dyad scaffold and a process for preparation thereof” (COUNCIL OF SCIENTIFIC AND INDUSTRIAL RESEARCH, priority 2016, dated 2021).

Key:
[1] = Spectral (photophysical) properties of representative derivatives in DCM at room temperature; type: physicochemical; set-up: τf (fluorescent lifetime): unit not given here; conditions: for ΔStokes (Stokes shift=λem−λabs) / λabs (maximum absorption band more than 300 nm) / λem (excited at the longest maximum absorption band) / λex (excited wavelength) / τf (fluorescent lifetime) / ϕf (quantum yield): DCM, RM, 10−5M; for ϕf (quantum yield): quinine sulfate and rhodamine 6G as standard; for Effect of substituent on the fluorescent properties / emission: CH2Cl2 at RT
Source text: The photo-physical properties of representative salts are studied in CH2Cl2 at RT (FIG. 1).
The corresponding absorption, emission and excitation, spectra are depicted in FIGS. 3, 4 and 5. […] The compounds display good quantum yields upto 0.76.
a The maximum absorption bands more than 300 nm; b Excited at the longest maximum absorption band in CH2Cl2; ^cExcited wavelength; ^dStokes shift=λem−λabs; ^eQuinine sulfate and rhodamine 6G was used as the standard; ^fFluorescent lifetime
The current invention provides compounds that display brightly fluorescence as well as a good ϕf. The salts are a novel class of fluorescent materials that contain a pyridinium-oxazole functional group and the photo-physical properties of representative salts are studied in CH2Cl2 at RT The absorption and excitation maxima, the photoluminescence (PL) maxima and quantum yields (FF), as well as the excited state lifetimes (tf) of these compounds in CH2Cl2 solution are listed in Tables 3, whereas the corresponding absorption, emission, excitation spectra are depicted in FIGS. 3, 4 and 5. […] These observations are indicative of a predominant π-π* character for the lowest excited state, and the life time tf values are consistent with a singlet multiplicity. Most of these compounds display good quantum yields upto 0.76 (3n). The radiative rate constants are barely affected by the substitution pattern, an indication of the similar excited state character for all compounds.

MCF-7 cells = assay: Localization and staining of mitochondria in living MCF-7 cells by fluorescence microscopy, with MitoTracker Green costaining; type: cell-based; conditions: 1 μM, 1 h
Protocol: MCF-7 cells were obtained from National Centre for Cell Science, Pune, India. For bio imaging purpose, the cells were seeded in a 6 well plate at a density of 10^5 cells/mL in Dulbecco's Modified Eagle's Medium+Ham's F12 containing 10% fetal bovine serum and a 0.1% antibiotic solution for 24 h at […] and 5% CO2 for adherence
MCF-7 cells (1×10^4 cells/mL/well) were seeded in a 6-well tissue culture plate for 48 h. The cells were then treated with 1 μM concentration of different organic molecules for 30 minutes. After thorough washing with 1×PBS (P^H 7.4), the cells are fixed used paraformaldehye (4% in PBS) for 15 minutes. Then cells were washed using 1×PBS twice. Further cells are permeated using 0.4% triton X in PBS for 30 seconds followed by treatment with 1 μg/mL of DAPI solution for 15 minutes. The cells are again ished twice with 1×PBS (P^H 7.4). Finally, a confocal fluorescence microscope (Nikon Eclipse: TE 2000-E, Japan). Bioimaging studies are carried out using red and green filters. (FIG. 2)
Cells are cultured and maintained as described above. Cells were treated with 1 μM compound for 30 min followed by washing with PBS. Further cells were treated with […] MG for 10 min and then washed with PBS. Cells were fixed and treated with DAPI as described above.
MCF-7 cells were incubated with 1 μM of 3n for 1 h, and excess dyes were washed away by buffer solution.

| Structure (SMILES) | melting point [°C] | ΔStokes (Stokes shift=λem−λabs) [1] [nm] | λabs (maximum absorption band more than 300 nm) [1] [nm] | λem (excited at the longest maximum absorption band) [1] [nm] | λex (excited wavelength) [1] [nm] | τf (fluorescent lifetime) [1] | ϕf (quantum yield) [1] | Staining / localization in mitochondria (MCF-7 cells) | Effect of substituent on the fluorescent properties / emission [1] |
| --- | --- | --- | --- | --- | --- | --- | --- | --- | --- |
| CCCCC(=O)c1ccc(-c2oc3cccc4[n+]3c2-c2ccccc2-4)cc1.F[B-](F)(F)F | 202 to 204 | – | – | – | – | – | – | – | – |
| CN(C)c1ccc(-c2oc3cccc4[n+]3c2-c2ccccc2-4)cc1.F[B-](F)(F)F [3n, 1-(4-(dimethylamino)phenyl)benzo[a]oxazolo[4,3,2-cd]indolizin-10-ium tetrafluoroborate] | 242 to 244 | 049 | 506 | 555 | 511 | 9.1 | 0.76 | stains specifically the mitochondrial region | – |
| F[B-](F)(F)F.c1ccc(-c2oc3cccc4[n+]3c2-c2ccccc2-4)cc1 [3a, 1-phenylbenzo[a]oxazolo[4,3,2-cd]indolizin-10-ium tetrafluoroborate] | 192 to 193 | 036 | 368 | 404 | 338 | 1.2 | 0.10 | – | – |
| Clc1ccc2c(c1)-c1c(-c3ccccc3)oc3cccc-2[n+]13.F[B-](F)(F)F | 206 to 208 | – | – | – | – | – | – | – | – |
| Cc1cccc2c1-c1cccc3oc(-c4ccccc4)c-2[n+]13.F[B-](F)(F)F | 220 to 221 | – | – | – | – | – | – | – | – |
| Cc1ccc(/C=c2\c3ccccc3c3cccc(=O)n23)cc1Cl [3z″, (E)-6-(3-chloro-4-methylbenzylidene)pyrido[2,1-a]isoindol-4(6H)-one] | 194 to 195 | – | – | – | – | – | – | – | – |
| Cc1ccc2c(c1)-c1cccc3oc(-c4ccccc4)c-2[n+]13.F[B-](F)(F)F | 224 to 226 | – | – | – | – | – | – | – | – |
| CC(C)c1ccc(-c2oc3cccc4[n+]3c2-c2ccccc2-4)cc1.F[B-](F)(F)F | 214 to 215 | – | – | – | – | – | – | – | – |
| Cc1ccc(-c2oc3cccc4[n+]3c2-c2ccccc2-4)cc1.F[B-](F)(F)F | 222 to 223 | – | – | – | – | – | – | – | – |
| F[B-](F)(F)F.c1ccc2c(c1)-c1cccc3oc(-c4ccc5ccccc5c4)c-2[n+]13 [3c, 1-(naphthalen-2-yl)benzo[a]oxazolo[4,3,2-cd]indolizin-10-iumtetrafluoroborate] | – | 071 | 410 | 481 | 364 | 5.2 | 0.49 | – | stronger effect on the fluorescent properties |
| COc1cccc(-c2oc3cccc4[n+]3c2-c2ccccc2-4)c1.F[B-](F)(F)F [3q, 1-(3-methoxyphenyl)benzo[a]oxazolo[4,3,2-cd]indolizin-10-ium tetrafluoroborate] | 206 to 208 | 079 | 376 | 455 | 332 | 2.0 | 0.20 | – | – |
| Clc1ccc(-c2oc3cccc4[n+]3c2-c2ccccc2-4)cc1.F[B-](F)(F)F [3m, 1-(4-chlorophenyl)benzo[a]oxazolo[4,3,2-cd]indolizin-10-ium tetrafluoroborate] | 274 to 275 | 040 | 370 | 410 | 339 | 1.7 | 0.19 | – | – |
| F[B-](F)(F)F.Fc1ccc(-c2oc3cccc4[n+]3c2-c2ccccc2-4)cc1 [3l, 1-(4-fluorophenyl)benzo[a]oxazolo[4,3,2-cd]indolizin-10-ium tetrafluoroborate] | 254 to 255 | 042 | 372 | 414 | 343 | 0.9 | 0.09 | – | only a modest effect on the fluorescent properties |
| CCCCOc1ccc(-c2oc3cccc4[n+]3c2-c2ccccc2-4)cc1.F[B-](F)(F)F | 183 to 185 | – | – | – | – | – | – | – | – |
| Clc1cccc(-c2oc3cccc4[n+]3c2-c2ccccc2-4)c1.F[B-](F)(F)F | 204 to 206 | – | – | – | – | – | – | – | – |
| COc1ccccc1-c1oc2cccc3[n+]2c1-c1ccccc1-3.F[B-](F)(F)F | 228 to 229 | – | – | – | – | – | – | – | – |
| F[B-](F)(F)F.c1ccc2c(c1)-c1cccc3oc(-c4cc5ccccc5c5ccccc45)c-2[n+]13 [3d, 1-(phenanthren-9-yl)benzo[a]oxazolo[4,3,2-cd]indolizin-10-ium tetrafluoroborate] | 230 to 232 | 076 | 411 | 487 | 365 | 7.2 | 0.54 | – | stronger effect on the fluorescent properties |
| COc1ccc(-c2oc3cccc4[n+]3c2-c2ccccc2-4)cc1.F[B-](F)(F)F [3j, 1-(4-methoxyphenyl)benzo[a]oxazolo[4,3,2-cd]indolizin-10-ium tetrafluoroborate] | 190 to 192 | 053 | 405 | 458 | 338 | 2.4 | 0.42 | – | only a modest effect on the fluorescent properties |
| COc1ccc(Cl)c(-c2cc3ccccc3c3cccc(=O)n23)c1 [3y″, 6-(2-chloro-5-methoxyphenyl)-4H-pyrido[2,1-a]isoquinolin-4-one] | 186 to 187 | – | – | – | – | – | – | – | – |
| Clc1ccc2c(c1)-c1cccc3oc(-c4ccccc4)c-2[n+]13.F[B-](F)(F)F | 208 to 210 | – | – | – | – | – | – | – | – |
| F[B-](F)(F)F.Fc1ccc2c(c1)-c1cccc3oc(-c4ccccc4)c-2[n+]13 | 255 to 256 | – | – | – | – | – | – | – | – |
| F[B-](F)(F)F.c1ccc2c(c1)-c1cccc3oc(-c4cccc5ccccc45)c-2[n+]13 | 198 to 200 | – | – | – | – | – | – | – | – |
